System: allergic rhinitis in adult humans
Test: Phase Ib randomized, double-blinded, placebo-controlled study of danazol intranasal spray; subject-reported Total Nasal Symptom Score (TNSS)
Format: in vivo, human
Design: key to Change in rTNSS, Median / Change in AM rTNSS, Median / Change in iTNSS, Median / Change in AM iTNSS, Median: change in TNSS, sum of four 0–3 symptom scores (0–12)
Description: A Phase Ib randomized, double-blinded, placebo-controlled, parallel group study was performed to evaluate the efficacy of danazol for treating allergic rhinitis in adult humans. Briefly, the study was performed as follows.
The subjects were male or female humans, 18-65 years of age, with a history of allergic rhinitis that had been receiving therapy (continuous or intermittent) for more than 1 year.
During a seven-day wash out period (days 1-7), the subjects received no treatment of any type and recorded their symptoms twice a day (in the morning before bathing, consumption of food or beverages or strenuous activities and 12 hours later) using the following scale: • 0=absent (no sign/symptom present) • 1=mild (sign/symptom clearly present, but minimal awareness; easily tolerated) • 2=moderate (definite awareness of sign/symptom that is bothersome but tolerable) • 3=severe (sign/symptom that is hard to tolerate; causes interference with activities of daily living and/or sleeping)
The subjects were randomized into treatment groups (danazol or placebo) after the wash out period (on day 8).
Treatment was begun on day 8 and continued through day 21 (14 days total). During treatment, the subjects again recorded their symptoms twice daily (as described above and before administration of the test medications in the morning) using the above scale. The subjects administered 0.3 ml of one of the test medications, 0.15 ml per nostril, once daily in the morning, immediately after recording their symptoms. The first administration of test medications was supervised by test site personnel. The test medications were 0.1% (w/v) danazol intranasal spray and placebo spray (nonmedicinal components in identical intranasal spray format). Efficacy of the test medications was assessed as follows:
The measures of effectiveness in this study included the subject-reported Total Nasal Symptom Score (TNSS). The TNSS is defined as the sum of the subject-reported symptom scores for the four nasal symptoms: rhinorrhea (runny nose), nasal congestion, nasal itching, and sneezing. Each score is assessed on a severity scale ranging from 0 to 3 as defined above.
The subjects were asked to assess both reflective TNSS (i.e., an evaluation of symptom severity over the past 12 hours prior to the recording of the score) and instantaneous TNSS (i.e., an evaluation of the symptom severity over the last 10 minutes).
The reflective and instantaneous TNSS are defined as the sum of the subject-reported symptom scores for the four nasal symptoms. Each subject recorded the symptom scores in the subject's diary. For each score, information recorded in the diary included the following: • rhinorrhea (runny nose) • nasal congestion • nasal itching • sneezing The severity scale for each symptom evaluation is given above.
Mean reflective (r) and instantaneous (i) subject-reported total nasal symptom scores (TNSS) were calculated for each subject. The mean TNSS is the average of all AM and PM daily scores (each score is ranked on a scale from 0-12) during the baseline (baseline efficacy value) and the treatment period (double-blind efficacy value).
The change in efficacy was calculated as the change in the double-blind value—baseline value as follows: • Change in rTNSS: mean double-blind rTNSS—mean baseline rTNSS • Change in iTNSS: mean double-blind iTNSS—mean baseline iTNSS Student's t-test: mean (SD) difference between treatment groups for the following: • Mean change in (rTNSS/iTNSS) • Mean change in AM (rTNSS/iTNSS) • Mean change in PM (rTNSS/iTNSS) • Mean change in individual symptom scores for each of the four nasal symptoms.
The largest improvements were with itchy nose symptoms (Table 8 and FIG. 6).

[1] = Wilcoxon rank-sum analysis, median, n=10
[2] = instantaneous symptom score 0-3, double-blind minus baseline, mean (SD), n=10
[3] = reflective symptom score 0-3, double-blind minus baseline, mean (SD), n=10

SMILES: C#C[C@]1(O)CC[C@H]2[C@@H]3CCC4=Cc5oncc5C[C@]4(C)[C@H]3CC[C@@]21C [Danazol, 17α-pregna-2,4-dien-20-yno[2,3-d]-isoxazol-17β-ol]
- Change in instantaneous symptom iItchy nose, Median [1]: −1.0
- Change in instantaneous symptom iRunny nose, Median [1]: 0.0
- Change in instantaneous symptom iSneezing, Median [1]: −0.5
- Change in instantaneous symptom iStuffy nose, Median [1]: −0.5
- Change in reflective symptom rItchy nose, Median [1]: −1.0
- Change in reflective symptom rRunny nose, Median [1]: −0.25
- Change in reflective symptom rSneezing, Median [1]: −1.0
- Change in reflective symptom rStuffy nose, Median [1]: 0.0
- efficacy measures showing a larger improvement with danazol than with placebo, instantaneous (iTNSS measures, all assessments but sneezing): 6/7
- Mean change in iTNSS (instantaneous TNSS, all AM and PM scores, double-blind minus baseline, 0.1% (w/v) intranasal spray once daily, 14 days, mean (SD), n=10): −1.94 (2.68)
- Mean change in PM iTNSS (instantaneous TNSS, evening assessment, double-blind minus baseline, mean (SD), n=10): −1.42 (2.64)
- Change in PM iTNSS, Median (instantaneous TNSS, evening, Wilcoxon rank-sum analysis, median, n=10): −1.5
- Mean change in AM iTNSS (instantaneous TNSS, morning assessment, double-blind minus baseline, mean (SD), n=10): −1.59 (2.36)
- Change in AM iTNSS, Median (instantaneous TNSS, morning, Wilcoxon rank-sum analysis, median, n=10): −1.5
- Change in iTNSS, Median (instantaneous TNSS, Wilcoxon rank-sum analysis, median, n=10): −1.75
- Mean change in instantaneous symptom iItchy nose [2]: −0.70 (0.92)
- Mean change in instantaneous symptom iRunny nose [2]: −0.30 (1.07)
- Mean change in instantaneous symptom iSneezing [2]: −0.50 (0.53)
- Mean change in instantaneous symptom iStuffy nose [2]: −0.44 (0.56)
- decrease in instantaneous symptom severity (iTNSS) (mean, Student's t-test analysis, vs 1.14 point decrease with placebo): 1.94 point
- decrease in reflective symptom severity (rTNSS) (mean, Student's t-test analysis, vs 1.16 point decrease with placebo): 2.11 point
- decrease in instantaneous symptom severity (iTNSS) (median, Wilcoxon rank-sum analysis, vs 0.75 point decrease with placebo): 1.75 point
- decrease in reflective symptom severity during the PM assessment (rTNSS) (median, Wilcoxon rank-sum analysis, vs 1.25 point decrease with placebo): 3.25 point
- efficacy measures showing a larger improvement with danazol than placebo, reflective (rTNSS measures, all assessments but runny nose symptom): 6/7
- Mean change in rTNSS (reflective TNSS, all AM and PM scores, double-blind minus baseline, 0.1% (w/v) intranasal spray 0.3 ml once daily, 14 days, mean (SD), n=10): −2.11 (2.66)
- Mean change in PM rTNSS (reflective TNSS, evening assessment, double-blind minus baseline, 0.1% (w/v) intranasal spray once daily, 14 days, mean (SD), n=10): −2.39 (2.68)
- Mean change in PM rTNSS (reflective TNSS, evening assessment, double-blind minus baseline, 0.1% (w/v) intranasal spray once daily, 14 days, mean (SD), n=10, listed as danazol): −2.39
- Change in PM rTNSS, Median (reflective TNSS, evening, Wilcoxon rank-sum analysis, median, n=10): −3.25
- Mean change in AM rTNSS (reflective TNSS, morning assessment, double-blind minus baseline, 0.1% (w/v) intranasal spray once daily, 14 days, mean (SD), n=10): −1.62 (2.40)
- Change in AM rTNSS, Median (reflective TNSS, morning, Wilcoxon rank-sum analysis, median, n=10): −2.0
- Change in rTNSS, Median (reflective TNSS, Wilcoxon rank-sum analysis, median, n=10): −2.25
- Mean change in reflective symptom rItchy nose [3]: −0.85 (1.02)
- Mean change in reflective symptom rRunny nose [3]: −0.30 (0.66)
- Mean change in reflective symptom rSneezing [3]: −0.47 (0.71)
- Mean change in reflective symptom rStuffy nose [3]: −0.48 (0.69)

From patent US20140294737A1, “TREATMENT OF RHINITIS” (AMPIO PHARMACEUTICALS, INC., priority 2011, published 2014)
